Assay results reported in patent publication US9113629B2, “4-amino-6-(4-substituted-phenyl)-picolinates and 6-amino-2-(4-substituted-phenyl)-pyrimidine-4-carboxylates and their use as herbicides” (DOW AGROSCIENCES LLC, priority 2013, dated 2015).
Like-named read-outs stand apart in the source and are kept apart here.

Key:
[1] = tested on: Key Grass and Sedge Weeds as well as Grass Crops; experiment: Post-emergent Test II herbicidal activity (Table 6); format: in vivo; conditions: post-emergence, 336 h; for pest or weed control at 70 g/ha: application rate 70 g ai/ha; for pest or weed control at 140 g/ha: application rate 140 g ai/ha
Procedure, shortened: (§1)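 Percent injury, 0 (none) to 100 (complete kill), was judged visually 14 d after spraying young plants at the first or second true leaf stage with compound in an acetone/DMSO aqueous carrier at 187 L/ha. Plants were kept in a greenhouse at 23–29 °C by day.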

[2] = tested on: Key Broadleaf Weed and Crop Species; experiment: Post-emergent Test II herbicidal activity (Table 5); format: in vivo; conditions: post-emergence, 336 h, post-emergent, 14 days after application; for pest or weed control at 70 g/ha: 70 g ai/ha; for pest or weed control at 140 g/ha: 140 g ai/ha
Procedure, shortened: as §1

[3] = CYPES: yellow nutsedge (Cyperus esculentus), read-out: Visual Growth Reduction (%) 14 Days After Application, CYPES
[4] = DIGSA: crabgrass (Digitaria sanguinalis), read-out: Visual Growth Reduction (%) 14 Days After Application, DIGSA
[5] = ECHCG: barnyardgrass (Echinochloa crus-galli), read-out: Visual Growth Reduction (%) 14 Days After Application, ECHCG
[6] = ORYSA: rice (Oryza sativa), read-out: Visual Growth Reduction (%) 14 Days After Application, ORYSA
[7] = SETFA: giant foxtail (Setaria faberi), read-out: Visual Growth Reduction (%) 14 Days After Application, SETFA
[8] = SORVU: grain sorghum (Sorghum vulgare), read-out: Visual Growth Reduction (%) 14 Days After Application, SORVU
[9] = TRZSS (wheat, Triticum aestivum), read-out: Visual Growth Reduction (%) 14 Days After Application, TRZSS
[10] = ZEAMX: maize, corn (Zea mays), read-out: Visual Growth Reduction (%) 14 Days After Application, ZEAMX
[11] = ABUTH: velvetleaf (Abutilon theophrasti), read-out: Visual Growth Reduction (%) 14 Days After Application ABUTH
[12] = AMARE: redroot pigweed (Amaranthus retroflexus), read-out: Visual Growth Reduction (%) 14 Days After Application AMARE
[13] = BRSNN: oilseed-rape, canola (Brassica napus), read-out: Visual Growth Reduction (%) 14 Days After Application BRSNN
[14] = CHEAL: lambsquarters (Chenopodium album), read-out: Visual Growth Reduction (%) 14 Days After Application CHEAL
[15] = EPHHL: wild poinsettia (Euphorbia heterophylla), read-out: Visual Growth Reduction (%) 14 Days After Application EPHHL
[16] = HELAN: sunflower (Helianthus annuus), read-out: Visual Growth Reduction (%) 14 Days After Application HELAN
[17] = VIOTR: wild pansy (Viola tricolor), read-out: Visual Growth Reduction (%) 14 Days After Application VIOTR

SMILES: COC(=O)c1nc(-c2cc(F)c(C(F)F)cc2F)c(F)c(N)c1Cl [Compound 176]
- melting point: 135.2 to 136.9 °C
- pest or weed control at 70 g/ha [1, 3]: 85 to 94%
- pest or weed control at 140 g/ha [1, 3]: 95 to 100%
- pest or weed control at 70 g/ha [1, 4]: 45 to 59%
- pest or weed control at 140 g/ha [1, 4]: 60 to 74%
- pest or weed control at 70 g/ha [1, 5]: 85 to 94%
- pest or weed control at 140 g/ha [1, 5]: 85 to 94%
- pest or weed control at 70 g/ha [1, 6]: 0 to 29%
- pest or weed control at 140 g/ha [1, 6]: 0 to 29%
- pest or weed control at 70 g/ha [1, 7]: 85 to 94%
- pest or weed control at 140 g/ha [1, 7]: 85 to 94%
- pest or weed control at 70 g/ha [1, 8]: 60 to 74%
- pest or weed control at 140 g/ha [1, 8]: 85 to 94%
- pest or weed control at 70 g/ha [1, 9]: 30 to 44%
- pest or weed control at 140 g/ha [1, 9]: 45 to 59%
- pest or weed control at 70 g/ha [1, 10]: 0 to 29%
- pest or weed control at 140 g/ha [1, 10]: 85 to 94%
- pest or weed control at 70 g/ha [2, 11]: 95 to 100%
- pest or weed control at 140 g/ha [2, 11]: 95 to 100%
- pest or weed control at 70 g/ha [2, 12]: 95 to 100%
- pest or weed control at 140 g/ha [2, 12]: 95 to 100%
- pest or weed control at 70 g/ha [2, 13]: 95 to 100%
- pest or weed control at 140 g/ha [2, 13]: 95 to 100%
- pest or weed control at 70 g/ha [2, 14]: 85 to 94%
- pest or weed control at 140 g/ha [2, 14]: 85 to 94%
- pest or weed control at 70 g/ha [2, 15]: 95 to 100%
- pest or weed control at 140 g/ha [2, 15]: 95 to 100%
- pest or weed control at 70 g/ha [2, 16]: 95 to 100%
- pest or weed control at 140 g/ha [2, 16]: 95 to 100%
- pest or weed control at 70 g/ha [2, 17]: 30 to 44%
- pest or weed control at 140 g/ha [2, 17]: 45 to 59%
